Measurements from PubChem BioAssay AID2060883 (Molecular Pharmacology Branch, DTP, NCI, 2025).
Where “and” joins values, the source holds several entries; their conditions need not be identical. Equal entries are not always repeated.

System: 843782-103-R-J1-PDC complex spheroid viability
Assay: Anticancer human tumor 843782-103-R-J1-PDC patient-derived lung adenocarcinoma cell line growth inhibition [RAS]
Settings: for viability, T/C: stronger effect = lower value
Outline: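 Tumour cells grown as complex spheroids with HUVEC endothelial cells and mesenchymal stem cells, treated with RAS pathway inhibitor combinations. Each agent spans half-log steps from near clinical Cmax, or 10 microM where Cmax is unknown.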

[1] = curve of first compound, second compound 0.00316 µM
[2] = curve of first compound, second compound 0.01 µM
[3] = curve of first compound, second compound 0.0316 µM
[4] = curve of first compound, second compound 0.1 µM
[5] = curve of first compound, second compound 0.316 µM
[6] = curve of first compound, second compound 1 µM
[7] = second compound 0.00316 µM, first compound 0.00316 µM
[8] = second compound 0.00316 µM, first compound 0.01 µM
[9] = second compound 0.00316 µM, first compound 0.0316 µM
[10] = second compound 0.00316 µM, first compound 0.1 µM
[11] = second compound 0.00316 µM, first compound 0.316 µM
[12] = second compound 0.00316 µM, first compound 1 µM
[13] = second compound 0.01 µM, first compound 0.00316 µM
[14] = second compound 0.01 µM, first compound 0.01 µM
[15] = second compound 0.01 µM, first compound 0.0316 µM
[16] = second compound 0.01 µM, first compound 0.1 µM
[17] = second compound 0.01 µM, first compound 0.316 µM
[18] = second compound 0.01 µM, first compound 1 µM
[19] = second compound 0.0316 µM, first compound 0.00316 µM
[20] = second compound 0.0316 µM, first compound 0.01 µM
[21] = second compound 0.0316 µM, first compound 0.0316 µM
[22] = second compound 0.0316 µM, first compound 0.1 µM
[23] = second compound 0.0316 µM, first compound 0.316 µM
[24] = second compound 0.0316 µM, first compound 1 µM
[25] = second compound 0.1 µM, first compound 0.00316 µM
[26] = second compound 0.1 µM, first compound 0.01 µM
[27] = second compound 0.1 µM, first compound 0.0316 µM
[28] = second compound 0.1 µM, first compound 0.1 µM
[29] = second compound 0.1 µM, first compound 0.316 µM
[30] = second compound 0.1 µM, first compound 1 µM
[31] = second compound 0.316 µM, first compound 0.00316 µM
[32] = second compound 0.316 µM, first compound 0.01 µM
[33] = second compound 0.316 µM, first compound 0.0316 µM
[34] = second compound 0.316 µM, first compound 0.1 µM
[35] = second compound 0.316 µM, first compound 0.316 µM
[36] = second compound 0.316 µM, first compound 1 µM
[37] = second compound 1 µM, first compound 0.00316 µM
[38] = second compound 1 µM, first compound 0.01 µM
[39] = second compound 1 µM, first compound 0.0316 µM
[40] = second compound 1 µM, first compound 0.1 µM
[41] = second compound 1 µM, first compound 0.316 µM
[42] = second compound 1 µM, first compound 1 µM
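Further: viability read after seven days of compound exposure.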

For `C=CC(=O)Nc1cc(Nc2nccc(-c3cn(C)c4ccccc34)n2)c(OC)cc1N(C)CCN(C)C` + C=CC(=O)N1CCN(c2nc(OCC3CCCN3C)nc3c(F)c(-c4nc(N)cc(C)c4C(F)(F)F)c(Cl)cc23)C(C)C1, the IC50 [1] was 320 nM, the IC50 [2] was 352 nM and the IC50 [3] was 539 nM. It also gave an IC50 [4] of 377 nM, an IC50 [5] of 361 nM and an IC50 [6] of 310 nM. It also gave a viability, T/C [7] of 93.5%, a viability, T/C [8] of 90.7% and a viability, T/C [9] of 80.1%. The viability, T/C [10] was 82.9%, the viability, T/C [11] was 49.8% and the viability, T/C [12] was 38.9%. It also gave a viability, T/C [13] of 91.6%, a viability, T/C [14] of 84.5% and a viability, T/C [15] of 83.5%. The viability, T/C [16] was 76.4%, the viability, T/C [17] was 50.6% and the viability, T/C [18] was 38.1%. For the same molecule, the viability, T/C [19] was 91.1%, the viability, T/C [20] was 88.2% and the viability, T/C [21] was 74.4%. The viability, T/C [22] was 67%, the viability, T/C [23] was 51.5% and the viability, T/C [24] was 46.8%. The viability, T/C [25] was 87.8%, the viability, T/C [26] was 84.5% and the viability, T/C [27] was 90.4%. For the same molecule, the viability, T/C [28] was 75.8%, the viability, T/C [29] was 53.4% and the viability, T/C [30] was 34.1%. The viability, T/C [31] was 87%, the viability, T/C [32] was 94% and the viability, T/C [33] was 77.2%. It also gave a viability, T/C [34] of 70.2%, a viability, T/C [35] of 52% and a viability, T/C [36] of 35.5%. For the same molecule, the viability, T/C [37] was 90.3%, the viability, T/C [38] was 78.7% and the viability, T/C [39] was 84.9%. The viability, T/C [40] was 71%, the viability, T/C [41] was 49.7% and the viability, T/C [42] was 32.5%.
`CCN1CCN(Cc2ccc(Nc3ncc(F)c(-c4cc(F)c5nc(C)n(C(C)C)c5c4)n3)nc2)CC1` + C=CC(=O)N1CCN(c2nc(OCC3CCCN3C)nc3c(F)c(-c4nc(N)cc(C)c4C(F)(F)F)c(Cl)cc23)C(C)C1 showed an IC50 [1] of 988 nM, an IC50 [2] of 471 nM and an IC50 [3] of 697 nM. The IC50 [4] was 764 nM, the IC50 [5] was over 1000 nM and the IC50 [6] was 836 nM. It also gave a viability, T/C [7] of 86.1%, a viability, T/C [8] of 93.4% and a viability, T/C [9] of 88.5%. For the same molecule, the viability, T/C [10] was 86.3%, the viability, T/C [11] was 68.1% and the viability, T/C [12] was 49.8%. The viability, T/C [13] was 88.4%, the viability, T/C [14] was 86.6% and the viability, T/C [15] was 86.3%. For the same molecule, the viability, T/C [16] was 74.9%, the viability, T/C [17] was 53.8% and the viability, T/C [18] was 43%. The viability, T/C [19] was 83.1%, the viability, T/C [20] was 83.7% and the viability, T/C [21] was 81.4%. The viability, T/C [22] was 79.8%, the viability, T/C [23] was 65.5% and the viability, T/C [24] was 42.2%. For the same molecule, the viability, T/C [25] was 89.5%, the viability, T/C [26] was 81% and the viability, T/C [27] was 81.5%. For the same molecule, the viability, T/C [28] was 80%, the viability, T/C [29] was 60.7% and the viability, T/C [30] was 46.7%. It also gave a viability, T/C [31] of 88.9%, a viability, T/C [32] of 86% and a viability, T/C [33] of 83.7%. It also gave a viability, T/C [34] of 71.9%, a viability, T/C [35] of 62.5% and a viability, T/C [36] of 57.7%. It also gave a viability, T/C [37] of 91.1%, a viability, T/C [38] of 83.2% and a viability, T/C [39] of 86.7%. The viability, T/C [40] was 78.3%, the viability, T/C [41] was 63.5% and the viability, T/C [42] was 47.5%.
`CC1(C)CCC(Nc2ncc(C(F)(F)F)c(-c3c[nH]c4c(P(C)(C)=O)c(C#N)ccc34)n2)CN1` (configuration not stated) was tested, and the viability, T/C (compound 0.000949 µM) was 107% (2×) and 108% and 102%, the viability, T/C (compound 0.003 µM) was 93.6% [middle of 4 runs] and the viability, T/C (compound 0.00949 µM) was 58.3% [middle of 4 runs]. The viability, T/C (compound 0.0949 µM) was 22.4% [middle of 4 runs], the viability, T/C (compound 0.3 µM) was 19.5% [middle of 4 runs] and the IC50 (curve of compound) was 13.6 nM [middle of 4 runs].
`Cc1nc(N2CCC3(CC2)COC(C)C3N)c(CO)nc1Sc1ccnc(N)c1Cl` (configuration not stated) + C#Cc1c(F)ccc2cc(O)cc(-c3ncc4c(N5CC6CCC(C5)N6)nc(OCC56CCCN5CC(F)C6)nc4c3F)c12 showed an IC50 [3] of 8650 nM, an IC50 [4] of 5420 nM and an IC50 [5] of 4690 nM. It also gave an IC50 [6] of 536 nM, an IC50 (curve of first compound, second compound 3.16 µM) of 141 nM and an IC50 (curve of first compound, second compound 10 µM) of under 31.6 nM. For the same molecule, the viability, T/C [21] was 107%, the viability, T/C [22] was 102% and the viability, T/C [23] was 85.6%. It also gave a viability, T/C [24] of 77.2%, a viability, T/C (second compound 0.0316 µM, first compound 3.16 µM) of 68.2% and a viability, T/C (second compound 0.0316 µM, first compound 10 µM) of 45.8%. For the same molecule, the viability, T/C [27] was 105%, the viability, T/C [28] was 98% and the viability, T/C [29] was 83.1%. For the same molecule, the viability, T/C [30] was 72.6%, the viability, T/C (second compound 0.1 µM, first compound 3.16 µM) was 54.3% and the viability, T/C (second compound 0.1 µM, first compound 10 µM) was 44%. It also gave a viability, T/C [33] of 100%, a viability, T/C [34] of 91.4% and a viability, T/C [35] of 79.5%. It also gave a viability, T/C [36] of 65.9%, a viability, T/C (second compound 0.316 µM, first compound 3.16 µM) of 50.6% and a viability, T/C (second compound 0.316 µM, first compound 10 µM) of 46.2%. It also gave a viability, T/C [39] of 96%, a viability, T/C [40] of 80.9% and a viability, T/C [41] of 60%. It also gave a viability, T/C [42] of 39.5%, a viability, T/C (second compound 1 µM, first compound 3.16 µM) of 29.6% and a viability, T/C (second compound 1 µM, first compound 10 µM) of 32.1%. It also gave a viability, T/C (second compound 3.16 µM, first compound 0.0316 µM) of 82.6%, a viability, T/C (second compound 3.16 µM, first compound 0.1 µM) of 54.5% and a viability, T/C (second compound 3.16 µM, first compound 0.316 µM) of 39.4%. It also gave a viability, T/C (second compound 3.16 µM, first compound 1 µM) of 27.9%, a viability, T/C (second compound 3.16 µM, first compound 3.16 µM) of 27.4% and a viability, T/C (second compound 3.16 µM, first compound 10 µM) of 23.4%. For the same molecule, the viability, T/C (second compound 10 µM, first compound 0.0316 µM) was 49.2%, the viability, T/C (second compound 10 µM, first compound 0.1 µM) was 32.2% and the viability, T/C (second compound 10 µM, first compound 0.316 µM) was 30.9%. The viability, T/C (second compound 10 µM, first compound 1 µM) was 25.4%, the viability, T/C (second compound 10 µM, first compound 3.16 µM) was 21.6% and the viability, T/C (second compound 10 µM, first compound 10 µM) was 21.2%.
